{"source": "patent US6921811B2", "about": "“Bioactive coating composition and methods” (BioSurface Engineering Technologies, Inc., priority 1998, dated 2005)", "key": {"[1]": {"biological_target": "T1, antithrombin/factor Xa (Homo sapiens, UniProt P01008)", "T1 construct": "purchased Sigma Diagnostics Procedure No. CRS 106", "T1 sequence (P01008 33-464)": "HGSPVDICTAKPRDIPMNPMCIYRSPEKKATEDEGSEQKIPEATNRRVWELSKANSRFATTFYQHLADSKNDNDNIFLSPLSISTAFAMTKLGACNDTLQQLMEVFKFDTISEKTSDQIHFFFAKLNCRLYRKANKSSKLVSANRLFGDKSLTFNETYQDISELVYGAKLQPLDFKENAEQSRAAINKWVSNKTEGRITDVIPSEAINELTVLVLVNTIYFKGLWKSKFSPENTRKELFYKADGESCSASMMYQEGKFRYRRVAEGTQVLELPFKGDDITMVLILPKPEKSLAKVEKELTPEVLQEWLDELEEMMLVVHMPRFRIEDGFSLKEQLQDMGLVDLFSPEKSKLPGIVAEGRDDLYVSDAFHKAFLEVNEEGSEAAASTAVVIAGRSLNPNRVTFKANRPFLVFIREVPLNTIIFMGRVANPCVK", "experiment": "Loading efficiency of silyl-heparin complexes on materials, heparin-specific assays", "format": "biochemical", "conditions": "varied by substrate material (polystyrene, polycarbonate, polyurethane, stainless steel, titanium and others)", "from_the_text": "Using contacting surfaces coated with silyl-heparin as in Example 4, and to which silyl-heparin-fibronectin was attached as in Example 5, the presence of both heparin and fibronectin was detected in analytical assays. Heparin was detected using a commercially-available an enzyme-linked assay kit (Sigma Chemical Co., St. Louis) that measured the heparin-induced inhibition of antithrombin/factor Xa as measured with a factor Xa specific chromogenic substrate. The enzyme-inhibition assay was performed in low-attachment 96 well plates following the directions of the manufacturer.\nIn related studies, heparin-specific assays and diemethylene blue dye uptake were used to establish that silyl-heparin complexes could be bound to a variety of materials including polystyrene, hydrogel-coated polystyrene, polycarbonate, polyurethane, poly caprolactone, polyvinylchloride, stainless steel and titanium. The loading efficiency of silyl-heparin complexes varied by substrate material, but was generally in the range of 10-40 mlU of heparin per cm^2."}, "[2]": {"tested_on": "C3H10T1/2 (murine fibroblasts)", "experiment": "Cell attachment, spreading and growth on coated low-attachment polystyrene wells", "format": "cell-based", "conditions": "C3H10T1/2; coated low-attachment polystyrene wells; 10^4 cells/well; serum-containing medium", "from_the_text": "Several cell types were used, including GS-9L cells (rat gliosarcoma), C3H10T1/2 (murine fibroblasts), Jurkat (human T cell), bovine aorta endothelial (BAE) cells and rat lymphocytes. GS-9L and C3H10T1/2 cells were maintained in log phase growth and detached from cultureware using Versene and collected by centrifugation. Jurkat cells grew as single cell suspensions and were collected by centrifugation. Rat lymphocytes were collected from heparinized blood by density gradient isolation over Ficoll-Hypaque® media. The collected cells were rinsed once by low speed centrifugation and suspended in either serum-free Dulbecco's Modified Eagles Medium (DMEM) containing pyruvate or RPMI 1640 containing 10% fetal bovine serum (FBS) supplemented with pyruvate. Aliquots of 10^4 cells in 100 μL were used in subsequent adhesion studies.\nThe cells were examined after plating using an inverted, phase-contrast microscope. At selected time points up to 4 days after initial seeding, the cells were rinsed three times in saline and fixed in buffered 10% formalin or 35% ethanol. In some cases, the cells were stained in situ with a 0.01 % aqueous solution of crystal violet. The amount of attachment was scored visually or quantitated. To establish the relative number of cells bound, crystal violet stained cells were dissolved in a solution of 70% ethanol containing 0.1% sodium dodecyl sulfate and 0.38 M Tris and the absorbance monitored at 610 nm, using the methods of Scragg and Ferreira (Anal Biochem 198:80-5, 1991) and Grando et al. (Skin Pharmacol 6:135-47, 1993).\nThe cells of Example 7 were added to untreated polystyrene wells, wells coated with silyl-heparin as in Example 4, with silyl-heparin-fibronectin as in Example 5, and with only fibronectin by incubation as described in Example 5. […] Cells were seeded at a concentration of 10^4 cells/well in serum-containing medium.\nThe cells grew to confluency by 4 days. […] No effort was made to grow the cells in a defined- or serum-low medium known to support growth. […]"}, "[3]": {"tested_on": "Bovine aorta endothelial cells", "experiment": "Growth of endothelial cells across a porous membrane from coated sutures, crystal violet", "format": "cell-based", "conditions": "coated suture separated from cells by 3 micron pore membrane; 4 days", "protocol": "Six-well cluster plates were seeded with 5×10^4 bovine aorta endothelial cells. Cell culture insert membranes (25 mm diameter) with 3 micron pores in the bottom were placed in each well. Suture material was coated with silyl-heparin-bFGF or silyl-heparin. 10 cm of suture material, either coated or uncoated, was placed in each well and medium added sufficient to cover the suture (3 mL total). One set of inserts containing an uncoated suture was spiked with 50 ng of bFGF by adding the bFGF directly to the medium and was used as a positive control. The cells were allowed to grow for 4 days, and were then fixed and stained with crystal violet. Thereafter, the stain was eluted in aqueous methanol and 0.4% SDS and monitored at 595 nm. bFGF from the silyl-heparin-bFGF coated suture was able to transit the separating permeable 3 micron membrane and act regionally to stimulate the growth of endothelial cells at the end of 4 days, as shown in FIG. 6."}, "[4]": {"tested_on": "C3H10T1/2 cells", "experiment": "Cross-titration of fibronectin and silyl-heparin needed to support cell attachment", "format": "cell-based, murine", "conditions": "silyl-heparin titrated from 30 μg/well, fibronectin then applied at 4 μg/well; 24 hours; crystal violet, 610 nm", "protocol": "The optimal amount of fibronectin and silyl-heparin to support attachment of C3H10T1/2 cells was determined by cross-titration, as shown on FIG. 1. […] The fall-off for the silyl-heparin was more gradual. The curve of the relative amount of silyl-heparin on the substrate following serial dilution generally followed the cell attachment curve.\nIn FIG. 1, fibronectin (Δ—Δ) or silyl-heparin (•—•) were titrated to determine the quantity needed to support attachment of C3H10T1/2 cells. All dilutions were performed in quadruplicate in wells of 96-well plates of low-attachment polystyrene. For titration of fibronectin, silyl-heparin was applied at 30 μg/well in 70% ethanol as in Example 4. After rinsing, fibronectin was applied in doubling dilutions of phosphate buffered saline starting from 4 μg/well. For titration of silyl-heparin, silyl-heparin was applied in doubling dilutions in 70% ethanol starting from silyl-heparin concentrations of 30 μg/well. Fibronectin was then applied in saline at 4 μg/well. Cells were at a concentration of 10^4 cells/well in growth medium. For both experiments, the cells were allowed 24 hours to attach and then were rinsed and fixed in buffered formalin. The cells were stained for 5 minutes with 0.01% aqueous crystal violet and the absorbance at 610 nm determined."}}, "data": [{"substance": "benzyl-(1,2 dimethyl)disilyl heparin [silyl-heparin]", "values": [{"measurement": "loading efficiency of silyl-heparin complexes", "setting": "[1]", "result": "10-40 mlU of heparin per cm^2"}, {"measurement": "CELL ATTACHMENT", "setting": "[2]", "result": "did not attach"}, {"measurement": "growth (cell number) of endothelial cells", "setting": "[3]", "result": "did not result in an increase in cell number"}, {"measurement": "EC50 to support attachment of C3H10T1/2 cells", "setting": "[4]", "result": "about 8.7 μg/well"}]}]}
